For assay [1], the system named is HL-60, human proleukemia cells. Kind of assay: Cell-MTS proliferation assay, HL-60. The settings on record: Homo sapiens, 168 hr. The assay is classed as cell-based. An outline of the steps:
(§1)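 Seed: Raji 15,000, HL-60 5,000, NCI-H460 3,000 cells/96-well. +24 hr: 11-pt compound dilution, 100 μM–2.0 nM final. 7 d culture, MTS reagent, read OD490; IC50 vs DMSO, background subtracted.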

The test system of assay [2] is Raji, human Burkitts lymphoma cells. Nature of the assay: Cell-MTS proliferation assay, Raji. The assay is classed as cell-based. To be noted: Homo sapiens, 168 hr. In outline:
as §1

The test system of assay [3] is NCI-H460, human non-small cell lung cancer cells. Nature of the assay: Cell-MTS proliferation assay, NCI-H460. The assay is classed as cell-based. The settings on record: Homo sapiens, 168 hr. In outline: as §1
Background: Tetrazolium dyes change colour on reduction, which living cells bring about.

Assay [4] concerns the target BRD4(BD1) (Homo sapiens (Human), UniProt O60885). Nature of the assay: In vitro enzyme inhibition assay (BRD4 AlphaScreen). In kind it is binding. An outline of the steps: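 His-tagged BRD4 tested by AlphaScreen for binding of biotinylated H4K5/8/12/16-tetraacetyl peptide. After 20 min at room temperature, streptavidin donor and nickel chelate acceptor beads added (5 μg/mL final each). IC50 determined.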
For orientation: Bead proximity is the source of the signal in Alpha formats.

Setting [5] is: NCI-H460, Cell-MTS proliferation.
The mark [6] stands for this setting: in vitro enzyme inhibition assay.
[7] abbreviates: Cell-MTS proliferation, HL-60 cells.
[8] abbreviates: Cell-MTS proliferation, Raji cells.
The mark [9] stands for this setting: Cell-MTS proliferation, NCI-H460 cells.

SMILES strings stand for the structures. Read-outs that look alike come from different tables or passages of the source. Where only a bound is given, the exact number is not on record here.

One may read the IC50 as the concentration at which inhibition is half-maximal. Low values mean greater potency in that assay, high ones weaker potency in that assay. Regarding `CCS(=O)(=O)Nc1ccc(Oc2ccc(F)cc2F)c(-c2cc(C)c(=O)n(CC3CC3)c2)c1` [Example 247, N-[3-[1-(cyclopropylmethyl)-5-methyl-6-oxopyridin-3-yl]-4-(2,4-difluoro-phenoxy)phenyl]ethanesulfonamide], the IC50 in assay [1] (HL-60, Cell-MTS proliferation) is less than 500 nM; in assay [2] (Raji, Cell-MTS proliferation), less than 500 nM; in assay [3] (setting [5]), more than 5000 nM; in assay [4] (setting [6]), less than 500 nM.
On to `Cn1cc(-c2cc(S(C)(=O)=O)ccc2O[C@H]2CC[C@H](O)CC2)c2ccc(F)cc2c1=O` [Example 187, 7-fluoro-4-[2-(trans-4-hydroxycyclohexyl)oxy-5-methylsulfonylphenyl]-2-methylisoquinolin-1-one], for which the IC50 in assay [1] (HL-60, Cell-MTS proliferation) is less than 500 nM; in assay [2] (Raji, Cell-MTS proliferation), less than 500 nM; in assay [3] (setting [5]), more than 5000 nM; in assay [4] (setting [6]) it was less than 500 nM.
Regarding `CCS(=O)(=O)Nc1ccc(Oc2ccc(F)cc2F)c(-c2cn(C)c(=O)c3occc23)c1` [Example 253, N-[4-(2,4-difluorophenoxy)-3-(6-methyl-7-oxofuro[2,3-c]pyridin-4-yl)phenyl]ethanesulfonamide], the IC50 in assay [1] (HL-60, Cell-MTS proliferation) is less than 500 nM; in assay [2] (Raji, Cell-MTS proliferation), less than 500 nM; in assay [3] (setting [5]) it was more than 5000 nM; in assay [4] (setting [6]), less than 500 nM.
Turning to `Cc1cc(-c2cc(S(C)(=O)=O)ccc2O[C@H]2CC[C@H](N)CC2)cn(C)c1=O` [Example 404, 5-[2-(trans-4-aminocyclohexyl)oxy-5-methylsulfonylphenyl]-1,3-dimethylpyridin-2-one], the IC50 is less than 500 nM in assay [1] (setting [7]), more than 5000 nM in assay [2] (setting [8]), more than 5000 nM in assay [3] (setting [9]) and less than 500 nM in assay [4] (setting [6]).
Consider `CCS(=O)(=O)c1cc(-c2cn(C)c(=O)c3ccccc23)c(NCC2CC2)s1` [Example 205, 4-[2-(cyclopropylmethylamino)-5-ethylsulfonylthiophen-3-yl]-2-methylisoquinolin-1-one], for which the IC50 in assay [1] (HL-60, Cell-MTS proliferation) is 500 to 5000 nM; in assay [2] (Raji, Cell-MTS proliferation), 500 to 5000 nM; in assay [3] (setting [5]), more than 5000 nM; in assay [4] (setting [6]), less than 500 nM.
`CCS(=O)(=O)c1ccc(OCC2CC2)c(-c2cn(C)c(=O)c3sc(C(N)=O)cc23)c1` [Example 265, 4-[2-(cyclopropylmethoxy)-5-ethylsulfonylphenyl]-6-methyl-7-oxothieno[2,3-c]pyridine-2-carboxamide]: the IC50 in assay [1] (HL-60, Cell-MTS proliferation) was less than 500 nM; in assay [2] (Raji, Cell-MTS proliferation) it was less than 500 nM; in assay [3] (setting [5]), more than 5000 nM; in assay [4] (setting [6]), less than 500 nM.
In the case of `Cc1cc(-c2cc(S(C)(=O)=O)ccc2NC2CCOCC2)cn(C)c1=O` [Example 436, 1,3-dimethyl-5-[5-methylsulfonyl-2-(oxan-4-ylamino)phenyl]pyridin-2-one], the IC50 is less than 500 nM in assay [1] (setting [7]), 500 to 5000 nM in assay [2] (setting [8]), more than 5000 nM in assay [3] (setting [9]) and less than 500 nM in assay [4] (setting [6]).
Take `COCC1COc2cc(S(C)(=O)=O)cc(-c3cc(C)c(=O)n(C)c3)c2O1` (stereo not drawn) [Example 498, 5-[3-(methoxymethyl)-7-methylsulfonyl-2,3-dihydro-1,4-benzodioxin-5-yl]-1,3-dimethylpyridin-2-one]: the IC50 is 500 to 5000 nM in assay [1] (setting [7]), more than 5000 nM in assay [2] (setting [8]), more than 5000 nM in assay [3] (setting [9]) and less than 500 nM in assay [4] (setting [6]).
As for `CCS(=O)(=O)Nc1ccc(O[C@H]2CC[C@H](O)CC2)c(-c2cc(C)c(=O)n(C)c2)c1` [Example 430, N-[3-(1,5-dimethyl-6-oxopyridin-3-yl)-4-(trans-4-hydroxycyclohexyl)oxyphenyl]ethanesulfonamide], the concentration for half-maximal inhibition (IC50) in assay [1] (setting [7]) is less than 500 nM; in assay [2] (setting [8]), less than 500 nM; in assay [3] (setting [9]), more than 5000 nM; in assay [4] (setting [6]), less than 500 nM.
Take `Cc1cc(-c2cc(S(C)(=O)=O)ccc2NC2CCCC2)cn(C)c1=O` [Example 417, 5-[2-(cyclopentylamino)-5-methylsulfonylphenyl]-1,3-dimethylpyridin-2-one]: the IC50 in assay [1] (setting [7]) is less than 500 nM; in assay [2] (setting [8]), less than 500 nM; in assay [3] (setting [9]) it was more than 5000 nM; in assay [4] (setting [6]), less than 500 nM.
`CCS(=O)(=O)c1ccc(OCC2CC2)c(-c2cn(C)c(=O)c3ccc(F)cc23)c1` [Example 174, 4-[2-(cyclopropylmethoxy)-5-ethylsulfonylphenyl]-6-fluoro-2-methylisoquinolin-1-one]: the IC50 is less than 500 nM in assay [1] (HL-60, Cell-MTS proliferation); less than 500 nM in assay [2] (Raji, Cell-MTS proliferation); more than 5000 nM in assay [3] (setting [5]); less than 500 nM in assay [4] (setting [6]).
With `Cc1cc(-c2cc(S(C)(=O)=O)ccc2OCC2CC2)cn(CC2COC2)c1=O` [Example 245, 5-[2-(cyclopropylmethoxy)-5-methylsulfonylphenyl]-3-methyl-1-(oxetan-3-ylmethyl)pyridin-2-one], the IC50 in assay [1] (HL-60, Cell-MTS proliferation) is more than 5000 nM; in assay [2] (Raji, Cell-MTS proliferation), more than 5000 nM; in assay [3] (setting [5]), more than 5000 nM; in assay [4] (setting [6]), 500 to 5000 nM.
Regarding `Cn1cc(Oc2cc(-c3cc(S(C)(=O)=O)ccc3OCC3CC3)cn(C)c2=O)cn1` [Example 293, 5-[2-(cyclopropylmethoxy)-5-methylsulfonylphenyl]-1-methyl-3-(1-methylpyrazol-4-yl)oxypyridin-2-one], the IC50 is 500 to 5000 nM in assay [1] (HL-60, Cell-MTS proliferation); 500 to 5000 nM in assay [2] (Raji, Cell-MTS proliferation); more than 5000 nM in assay [3] (setting [5]); less than 500 nM in assay [4] (setting [6]).
Turning to `Cn1cc(-c2cc(S(C)(=O)=O)ccc2N[C@H]2CC[C@H](O)CC2)c2ccccc2c1=O` [Example 192, 4-[2-[(trans-4-hydroxycyclohexyl)amino]-5-methylsulfonylphenyl]-2-methylisoquinolin-1-one], the IC50 in assay [1] (HL-60, Cell-MTS proliferation) is less than 500 nM; in assay [2] (Raji, Cell-MTS proliferation), less than 500 nM; in assay [3] (setting [5]), more than 5000 nM; in assay [4] (setting [6]) it was less than 500 nM.
For the compound `CCS(=O)(=O)c1ccc(OC2CCC(F)(F)CC2)c(-c2cn(C)c(=O)c3cncn23)c1` [Example 373, 5-[2-(4,4-difluorocyclohexyl)oxy-5-ethylsulfonylphenyl]-7-methylimidazo[1,5-a]pyrazin-8-one], the IC50 in assay [1] (setting [7]) was less than 500 nM; in assay [2] (setting [8]), 500 to 5000 nM; in assay [3] (setting [9]), more than 5000 nM; in assay [4] (setting [6]), less than 500 nM.
Consider `CCS(=O)(=O)c1ccc(OCC2CC2)c(-c2cc(C)c(=O)n(C)c2)c1` [Example 450, 5-[2-(cyclopropylmethoxy)-5-ethylsulfonylphenyl]-1,3-dimethylpyridin-2-one], for which the IC50 in assay [1] (setting [7]) is less than 500 nM; in assay [2] (setting [8]), less than 500 nM; in assay [3] (setting [9]) it was more than 5000 nM; in assay [4] (setting [6]), less than 500 nM.
Regarding `CCOc1ccc(S(=O)(=O)CC)cc1-c1cn(C)c(=O)c2cnc(-c3cnn(C)c3)nc12` [Example 227, 8-(2-ethoxy-5-ethylsulfonylphenyl)-6-methyl-2-(1-methylpyrazol-4-yl)pyrido[4,3-d]pyrimidin-5-one], the IC50 in assay [1] (HL-60, Cell-MTS proliferation) was less than 500 nM; in assay [2] (Raji, Cell-MTS proliferation), 500 to 5000 nM; in assay [3] (setting [5]) it was more than 5000 nM; in assay [4] (setting [6]), less than 500 nM.
Regarding `Cn1cc(-c2cc(S(C)(=O)=O)cnc2OCC2CC2)c2ccccc2c1=O` [Example 321, 4-[2-(cyclopropylmethoxy)-5-methylsulfonylpyridin-3-yl]-2-methylisoquinolin-1-one], the half-maximal inhibitory concentration (IC50) was less than 500 nM in assay [1] (HL-60, Cell-MTS proliferation); less than 500 nM in assay [2] (Raji, Cell-MTS proliferation); more than 5000 nM in assay [3] (setting [5]); less than 500 nM in assay [4] (setting [6]).
As to `CCS(=O)(=O)Nc1ccc(Oc2ccc(F)cc2F)c(-c2cc(N)c(=O)n(C)c2)c1` [Example 115, N-[3-(5-amino-1-methyl-6-oxopyridin-3-yl)-4-(2,4-difluorophenoxy)phenyl]ethanesulfonamide], the IC50 in assay [1] (HL-60, Cell-MTS, class symbols A/B/C) is less than 500 nM; in assay [2] (Raji, Cell-MTS, class symbols A/B/C), less than 500 nM; in assay [3] (NCI-H460, Cell-MTS, class symbols A/B/C), more than 5000 nM; in assay [4] (class symbols A/B/C) it was less than 500 nM.
As to `CCCc1ccc(S(C)(=O)=O)cc1-c1ccc(=O)n(C)c1` [Example 313, 1-methyl-5-(5-methylsulfonyl-2-propylphenyl)pyridin-2-one], the IC50 is 500 to 5000 nM in assay [1] (HL-60, Cell-MTS proliferation); more than 5000 nM in assay [2] (Raji, Cell-MTS proliferation); more than 5000 nM in assay [3] (setting [5]); 500 to 5000 nM in assay [4] (setting [6]).
As for `CC#CCOc1ccc(S(=O)(=O)CC)cc1-c1cc(OC)c(=O)n(C)c1` [Example 389, 5-(2-but-2-ynoxy-5-ethylsulfonylphenyl)-3-methoxy-1-methylpyridin-2-one], the IC50 in assay [1] (setting [7]) was less than 500 nM; in assay [2] (setting [8]), 500 to 5000 nM; in assay [3] (setting [9]), more than 5000 nM; in assay [4] (setting [6]), less than 500 nM.
For `Cn1cc(-c2cc(S(C)(=O)=O)ccc2NCC2CC2)c2ccccc2c1=O` [Example 194, 4-[2-(cyclopropylmethylamino)-5-methylsulfonylphenyl]-2-methylisoquinolin-1-one], the IC50 in assay [1] (HL-60, Cell-MTS proliferation) is less than 500 nM; in assay [2] (Raji, Cell-MTS proliferation), less than 500 nM; in assay [3] (setting [5]) it was more than 5000 nM; in assay [4] it was less than 500 nM.
As to `CCS(=O)(=O)c1ccc(OCC2CC2)c(-c2cn(C)c(=O)c3c2CCCC3)c1` [Example 219, 4-[2-(cyclopropylmethoxy)-5-ethylsulfonylphenyl]-2-methyl-5,6,7,8-tetrahydroisoquinolin-1-one], the IC50 was less than 500 nM in assay [1] (HL-60, Cell-MTS proliferation); less than 500 nM in assay [2] (Raji, Cell-MTS proliferation); more than 5000 nM in assay [3] (setting [5]); less than 500 nM in assay [4] (setting [6]).
For the compound `CCS(=O)(=O)c1ccc(OCC2CC2)c(-c2cn(C)c(=O)c3oc(C)cc23)c1` [Example 270, 4-[2-(cyclopropylmethoxy)-5-ethylsulfonylphenyl]-2,6-dimethylfuro[2,3-c]pyridine-7-one], the IC50 is less than 500 nM in assay [1] (HL-60, Cell-MTS proliferation); less than 500 nM in assay [2] (Raji, Cell-MTS proliferation); 500 to 5000 nM in assay [3] (setting [5]); less than 500 nM in assay [4] (setting [6]).

These data come from patent publication US10023592B2, “Bromodomain inhibitors” (Celgene Quanticel Research, Inc., priority 2013, dated 2018).
